Assay results taken from patent US5162328A, “N-[3-[2-(1H-imidazol-1-yl)ethoxy]phenyl]-4-(2-thienyl)-2-pyrimidinamine and pharmacologically acceptable salts” (American Cyanamid Company, priority 1991, dated 1992).
Read-outs that look alike come from different tables or passages of the source.

Test: Pharmacokinetics in dogs (plasma concentration by HPLC)
Assay type: in vivo, dog (beagle)
Conditions: dog, plasma, po, 2 mg/kg/day; for concentration at 0.5 h / concentration at 1 h / concentration at 2 h / concentration at 4 h / AUC(0-t) / Cmax / Tmax / half-life / AUC(0-inf): 2 mg/kg/day PO; for AUC(0-inf): read-out: AUCO- (to infinite time)
Procedure: Since dogs are used in toxicology studies of antiasthma compounds, this species is chosen for pharmacokinetic evaluations. Use of the dog permits the pharmacokinetic comparison of 2 or more compounds in the same test animal, an evaluation which could not be conveniently performed in a smaller species. For each test compound, normal dogs are given a dose of 2.0 mg/kg/day for 5 consecutive days. There is a washout period of 1 month between the study of each of the test compounds in the same four dogs. Each test compound is administered as a solution of 5 mg/ml in either 0.05 or 0.1N HCl which is dispensed into a gelatin capsule immediately prior to dosage.
Heparinized blood samples are obtained from each animal on the first, third and fifth day of dosage at 0.5, 1.0, 2.0, 4.0, 7.0, 12.0 and 24.0 hours after the dose. The samples are centrifuged immediately to obtain plasma which is frozen until analyzed.
Analysis of plasma is performed using High Performance Liquid Chromatography (HPLC). The analytical procedure is essentially identical for each compound. The internal standard used for N-[3-[2-(1H-imidazol-1-yl)ethoxy]phenyl]-4-(2-thienyl)2-pyrimidinamine is 2-chloro-11-(4-methyl-1-piperazinyl)dibenz[b,f][1,4]oxazepine succinate, while for 2-methyl-N^4 -[4-(4-pyridinyl)-2-pyrimidinyl]-1,4-benzenediamine dihydrochloride and N-[4-[2-(diethylamino)ethoxy]phenyl]-4-(4-pyridinyl)-2-pyrimidnamine dihydrochloride the internal standard is 7-ethoxy-coumarin. In a typical procedure, a 0.4 ml volume of acetonitrile containing internal standard is added a 0.2 ml volume of serum. The sample is mixed by vortexing and centrifuged. The clear protein free supernatent fluid is decanted into a clean tube and evaporated to dryness. The dry residue is dissolved in 0.2 ml of HPLC mobile phase and 50 ul of this solution injected. Peaks corresponding to the test compound being measured and to the internal standard compound are quantitated by their absorption of ultraviolet light at 280 nm. Each set of analytical samples is accompanied by the analysis of a group of standard dog plasma samples prepared to contain amounts of the compound being measured which encompasses the concentration range of the samples.
Four normal beagle dogs weighing between 9.2 and 10.2 Kg are used in the study.

- concentration at 0.5 h (Dog 1, day 1, 0.5 h): 512 ng/mL
- concentration at 1 h (Dog 1, day 1, 1 h): 233 ng/mL
- concentration at 2 h (Dog 1, day 1, 2 h): 55 ng/mL
- concentration at 4 h (Dog 1, day 1, 4 h): < 30 ng/mL
- AUC(0-t) (Dog 1, day 1): 458 ng·h/mL
- Cmax (Dog 1, day 1): 512 ng/mL
- Tmax (Dog 1, day 1): 30 min
- half-life (Dog 1, day 1): 28.2 min
- AUC(0-inf) (Dog 1, day 1): 520 ng·h/mL
- concentration at 0.5 h (Dog 1, day 3, 0.5 h): 375 ng/mL
- concentration at 1 h (Dog 1, day 3, 1 h): 295 ng/mL
- concentration at 2 h (Dog 1, day 3, 2 h): 122 ng/mL
- concentration at 4 h (Dog 1, day 3, 4 h): < 30 ng/mL
- AUC(0-t) (Dog 1, day 3): 470 ng·h/mL
- Cmax (Dog 1, day 3): 375 ng/mL
- Tmax (Dog 1, day 3): 30 min
- half-life (Dog 1, day 3): 54 min
- AUC(0-inf) (Dog 1, day 3): 602 ng·h/mL
- concentration at 0.5 h (Dog 1, day 5, 0.5 h): 120 ng/mL
- concentration at 1 h (Dog 1, day 5, 1 h): 277 ng/mL
- concentration at 2 h (Dog 1, day 5, 2 h): 50 ng/mL
- concentration at 4 h (Dog 1, day 5, 4 h): < 30 ng/mL
- AUC(0-t) (Dog 1, day 5): 293 ng·h/mL
- Cmax (Dog 1, day 5): 277 ng/mL
- Tmax (Dog 1, day 5): 60 min
- AUC(0-inf) (Dog 1, day 5): 349 ng·h/mL
- concentration at 0.5 h (Dog 2, day 1, 0.5 h): 438 ng/mL
- concentration at 1 h (Dog 2, day 1, 1 h): 210 ng/mL
- concentration at 2 h (Dog 2, day 1, 2 h): 58 ng/mL
- concentration at 4 h (Dog 2, day 1, 4 h): < 30 ng/mL
- AUC(0-t) (Dog 2, day 1): 406 ng·h/mL
- Cmax (Dog 2, day 1): 438 ng/mL
- Tmax (Dog 2, day 1): 30 min
- half-life (Dog 2, day 1): 31.2 min
- AUC(0-inf) (Dog 2, day 1): 471 ng·h/mL
- concentration at 0.5 h (Dog 2, day 3, 0.5 h): 260 ng/mL
- concentration at 1 h (Dog 2, day 3, 1 h): 78 ng/mL
- concentration at 2 h (Dog 2, day 3, 2 h): < 30 ng/mL
- concentration at 4 h (Dog 2, day 3, 4 h): < 30 ng/mL
- AUC(0-t) (Dog 2, day 3): 293 ng·h/mL
- Cmax (Dog 2, day 3): 260 ng/mL
- Tmax (Dog 2, day 3): 30 min
- AUC(0-inf) (Dog 2, day 3): 380 ng·h/mL
- concentration at 0.5 h (Dog 2, day 5, 0.5 h): 350 ng/mL
- concentration at 1 h (Dog 2, day 5, 1 h): 58 ng/mL
- concentration at 2 h (Dog 2, day 5, 2 h): < 30 ng/mL
- concentration at 4 h (Dog 2, day 5, 4 h): < 30 ng/mL
- AUC(0-t) (Dog 2, day 5): 190 ng·h/mL
- Cmax (Dog 2, day 5): 350 ng/mL
- Tmax (Dog 2, day 5): 30 min
- AUC(0-inf) (Dog 2, day 5): 255 ng·h/mL
- concentration at 0.5 h (Dog 3, day 1, 0.5 h): 605 ng/mL
- concentration at 1 h (Dog 3, day 1, 1 h): 234 ng/mL
- concentration at 2 h (Dog 3, day 1, 2 h): 184 ng/mL
- concentration at 4 h (Dog 3, day 1, 4 h): < 30 ng/mL
- AUC(0-t) (Dog 3, day 1): 570 ng·h/mL
- Cmax (Dog 3, day 1): 605 ng/mL
- Tmax (Dog 3, day 1): 30 min
- half-life (Dog 3, day 1): 58.2 min
- AUC(0-inf) (Dog 3, day 1): 776 ng·h/mL
- concentration at 0.5 h (Dog 3, day 3, 0.5 h): 387 ng/mL
- concentration at 1 h (Dog 3, day 3, 1 h): 284 ng/mL
- concentration at 2 h (Dog 3, day 3, 2 h): 141 ng/mL
- concentration at 4 h (Dog 3, day 3, 4 h): < 30 ng/mL
- AUC(0-t) (Dog 3, day 3): 477 ng·h/mL
- Cmax (Dog 3, day 3): 387 ng/mL
- Tmax (Dog 3, day 3): 30 min
- half-life (Dog 3, day 3): 61.2 min
- AUC(0-inf) (Dog 3, day 3): 635 ng·h/mL
- concentration at 0.5 h (Dog 3, day 5, 0.5 h): 105 ng/mL
- concentration at 1 h (Dog 3, day 5, 1 h): 289 ng/mL
- concentration at 2 h (Dog 3, day 5, 2 h): < 30 ng/mL
- concentration at 4 h (Dog 3, day 5, 4 h): < 30 ng/mL
- AUC(0-t) (Dog 3, day 5): 125 ng·h/mL
- Cmax (Dog 3, day 5): 289 ng/mL
- Tmax (Dog 3, day 5): 60 min
- AUC(0-inf) (Dog 3, day 5): 449 ng·h/mL
- concentration at 0.5 h (Dog 4, day 1, 0.5 h): 482 ng/mL
- concentration at 1 h (Dog 4, day 1, 1 h): 206 ng/mL
- concentration at 2 h (Dog 4, day 1, 2 h): < 30 ng/mL
- concentration at 4 h (Dog 4, day 1, 4 h): < 30 ng/mL
- AUC(0-t) (Dog 4, day 1): 399 ng·h/mL
- Cmax (Dog 4, day 1): 482 ng/mL
- Tmax (Dog 4, day 1): 30 min
- AUC(0-inf) (Dog 4, day 1): 630 ng·h/mL
- concentration at 0.5 h (Dog 4, day 3, 0.5 h): 283 ng/mL
- concentration at 1 h (Dog 4, day 3, 1 h): 44 ng/mL
- concentration at 2 h (Dog 4, day 3, 2 h): < 30 ng/mL
- concentration at 4 h (Dog 4, day 3, 4 h): < 30 ng/mL
- AUC(0-t) (Dog 4, day 3): 175 ng·h/mL
- Cmax (Dog 4, day 3): 283 ng/mL
- Tmax (Dog 4, day 3): 30 min
- AUC(0-inf) (Dog 4, day 3): 224 ng·h/mL
- concentration at 0.5 h (Dog 4, day 5, 0.5 h): 420 ng/mL
- concentration at 1 h (Dog 4, day 5, 1 h): < 30 ng/mL
- concentration at 2 h (Dog 4, day 5, 2 h): < 30 ng/mL
- concentration at 4 h (Dog 4, day 5, 4 h): < 30 ng/mL
- AUC(0-t) (Dog 4, day 5): 105 ng·h/mL
- Cmax (Dog 4, day 5): 420 ng/mL
- Tmax (Dog 4, day 5): 30 min
- AUC(0-inf) (Dog 4, day 5): 575 ng·h/mL
- concentration at 0.5 h (Mean of 4 dogs, day 1, 0.5 h): 509 ng/mL
- concentration at 1 h (Mean of 4 dogs, day 1, 1 h): 221 ng/mL
- concentration at 2 h (Mean of 4 dogs, day 1, 2 h): 74 ng/mL
- concentration at 4 h (Mean of 4 dogs, day 1, 4 h): < 30 ng/mL
- concentration at 0.5 h (Mean of 4 dogs, day 3, 0.5 h): 326 ng/mL
- concentration at 1 h (Mean of 4 dogs, day 3, 1 h): 175 ng/mL
- concentration at 2 h (Mean of 4 dogs, day 3, 2 h): 66 ng/mL
- concentration at 4 h (Mean of 4 dogs, day 3, 4 h): < 30 ng/mL
- concentration at 0.5 h (Mean of 4 dogs, day 5, 0.5 h): 249 ng/mL
- concentration at 1 h (Mean of 4 dogs, day 5, 1 h): 156 ng/mL
- concentration at 2 h (Mean of 4 dogs, day 5, 2 h): < 30 ng/mL
- concentration at 4 h (Mean of 4 dogs, day 5, 4 h): < 30 ng/mL
- AUC(0-t) (Mean, day 1): 458 ng·h/mL
- Cmax (Mean, day 1): 509 ng/mL
- Tmax (Mean, day 1): 30 min
- half-life (Mean, day 1): 39 min
- AUC(0-inf) (Mean, day 1): 599 ng·h/mL
- AUC(0-t) (Mean, day 3): 354 ng·h/mL
- Cmax (Mean, day 3): 326 ng/mL
- Tmax (Mean, day 3): 30 min
- half-life (Mean, day 3): 57.6 min
- AUC(0-inf) (Mean, day 3): 460 ng·h/mL
- AUC(0-t) (Mean, day 5): 178 ng·h/mL
- Cmax (Mean, day 5): 334 ng/mL
- Tmax (Mean, day 5): 45 min
- AUC(0-inf) (Mean, day 5): 407 ng·h/mL
- k el (derived from mean of half-life values, read-out: elimination constant (converted)): 0.000248 s⁻¹
Compound: Cc1cc(Nc2nccc(-c3ccncc3)n2)ccc1N.Cl.Cl [Compound 2, 2-methyl-N^4-[4-(4-pyridinyl)-2-pyrimidinyl]-1,4-benzenediamine dihydrochloride, reference compound]
